# Assay results: patent publication EP2329817A1, “Retinoic acid receptor antagonists, miR-10a inhibitors and inhibitors of HOXB1 or HOXB3 repressors for treating pancreatic cancer” (Ernst-Moritz-Arndt-Universität Greifswald, priority 2009, dated 2011)
# Legend:
# [1] = system: PaTu-T cells; assay: Cell survival and cell cycle distribution by propidium iodine staining (FACS); assay type: cell-based, human
# Excerpt: Targeting endogenous miR-10a with Morpholinos rendered PaTu-T-cells non-invasive and prevented metastatic behaviour in zebrafish embryos, whereas a control Morpholino had no such effect (Fig.4 B, Table1 and Supplemental Table 1). […] (analysed by propidium iodine (PI) staining, data not shown).
# We used the selective RARα antagonist Ro-41-5253; to analyze its anti-migratory activity in an in vitro migration assay ("scratch assay") and in the zebrafish xenotransplantation model, respectively. […] Similar results were obtained when PaTu-T cells were treated with RAR -specific siRNAs (Supplemental Table 1 and Supplemental Fig. 1).
# Supplemental Figure 3: Cell cycle analysis of RARα siRNA or Ro-415253 treated PaTu-T cells. Cells were treated with either DMSO control (A), RARα siRNA (B) or 200 nM Ro-415253 (C) and fixed after 24h with 70% EtOH. Following propidium iodine (PI) staining the cells were analysed by a LSR2 FACS sorter (Becton Dickinson). […] Gate P2 indicates cells in G0/1 phase, gate 3 represents cells in S phase and gate 4 represents Cells in M/G2 phase.
# [2] = system: xenotransplanted primary human tumours; assay: Zebrafish embryo xenotransplantation of pretreated fragments of resected primary human tumours; assay type: in vivo; settings: for Migration <5 / Migration 5 to 20 / Migration >20 / total >5 / total >5, final line, number: number of embryos; for total >5, final line, per cent / total >5, final line, number: whole experiment; for presence of micro-metastases at 3dpl, Migration 5 to 20: number in square brackets
# Protocol: Zebrafish (Danio rerio) (Tuebingen line, AIB strain (Albinos) and Tg (fli1:eGFP) were handled in compliance with local animal care regulations and standard protocols of the Netherlands and Germany. Fish were kept at 28°C in aquaria with day/night light cycles (10 h dark versus 14 h light periods). The developing embryos were kept in an incubator at constant temperatures.
# Cells were stained with CM-Dil (red fluorescence) at a 1:1000 dilution according to the manufacturers protocol (Vybrant, Invitrogen). Cells were suspended in 67% DPBS for injection into embryos. 2dpf zebrafish embryos were dechorionated and tranquilized with tricaine (Sigma). An injection needle (15µm diameter) with a manual injector (Eppendorf; Celltram Vario) was used to inject ∼200 cells into the yolk sac of 2dpf zebrafish embryos. On average 80 embryos were injected for each treatment and embryos with detectable cell scatter 2 h after the transfer (and therefore presumably due to the transfer procedure) were excluded from further analysis. Presence of cells was checked after 2 h incubation at 31°C and embryos were subsequently kept at 35°C. We defined metastasis based on the number of fluorescent cells that were detected outside the yolk sac 2 days after the transfer. Presence of 5 or more cells was considered "metastasised" and percentages of metastasised fish in each experiment were counted. The occurence of micro-metastasis is indicated by cell clusters of ≥4 cells presumably originating from cell division. PaTu-S cells and ASPC1 cells were transfected ON with indicated concentrations of miR-10a siRNA in the presence of ICA-Fectin TM442 (Eurogentec, Belgium). Whole cell lysates were prepared 36h post-transfection and 40 µg of total lysates were separated on 7.5% PAA-gels and blotted with anti E-cadherin, α-catenin, β-catenin (all mAbs, Transduction Labs) and actin antibodies (mAb Sigma-Aldrich, Germany).
# Human resection specimens were obtained at the Universitätsklinikum Greifswald according to local ethical guidelines and after obtaining informed patient consent. Tumour tissue was cut into small pieces using a scalpel blade. Tissue fragments were then washed with 67% DPBS and stained with 1:500 CM-Dil. Stained tissue fragments of approximal ^1/5 to ½ the size of the yolk sac were transferred with a glass transplantation needle into the yolk. After 2 h at 31 °C the embryos were checked that the yolk had sealed itself and the embryos were incubated at 35°C for the remainder of the experiment.
# Small tissue fragments from two well differentiated ductal adenocarcinoma resection specimen of the Pancreas head (2 and 3) were incubated with miR-10a Morpholino or RARα inhibitor and, following staining with carbocyanine dye (CM-Dil), transplanted into zebrafish embryos (Controls: DMSO and control-Morpholino). Formation of micrometastases in the fish was assessed at 3 dpi by analysis of present cell aggregates (including daughter cells) outside the yolk sac. […] Tumour grading and classification was done according to histopathological examination.
smiles,measurement,setting,value
"CCCCCCCOc1cc2c(cc1/C(C)=C/c1ccc(C(=O)O)cc1)C(C)(C)CCS2(=O)=O [Ro-41-5253, Benzoic acid, 4-(2-(7-(heptyloxy)-3,4-dihydro-4,4-dimethyl-2H-1-benzothiopyran-6-yl)-1-propenyl)-, S,S-dioxide, (E)]",cell cycle distribution,"[1]; 24h, Ro-415253 at 200 nM, PI staining, FACS",No differences
same,general cell survival,[1]; propidium iodine (PI) staining,no adverse affects
same,Migration <5,"[2]; Patient 1 (adenocarcinoma of the ampulla vateri, G3), Day 1",1
same,Migration 5 to 20,"[2]; Patient 1, Day 1",2
same,Migration >20,"[2]; Patient 1, Day 1",0
same,total >5,"[2]; Patient 1, Day 1",2
same,Migration 5 to 20,"[2]; Patient 1, Day 2",2
same,Migration <5,"[2]; Patient 1, Day 2",0
same,Migration >20,"[2]; Patient 1, Day 2",0
same,total >5,"[2]; Patient 1, Day 2",2
same,Migration 5 to 20,"[2]; Patient 1, Day 3",1
same,Migration <5,"[2]; Patient 1, Day 3",0
same,Migration >20,"[2]; Patient 1, Day 3",0
same,total >5,"[2]; Patient 1, Day 3",2
same,"total >5, final line, per cent",[2]; Patient 1,3.1%
same,"total >5, final line, number",[2]; Patient 1,2
same,Migration <5,"[2]; Patient 2 (well-differentiated adenocarcinoma of the pancreas, G2), Day 1",1
same,Migration 5 to 20,"[2]; Patient 2, Day 1",3
same,Migration >20,"[2]; Patient 2, Day 1",0
same,total >5,"[2]; Patient 2, Day 1",3
same,Migration 5 to 20,"[2]; Patient 2, Day 2",2
same,Migration <5,"[2]; Patient 2, Day 2",1
same,Migration >20,"[2]; Patient 2, Day 2",0
same,total >5,"[2]; Patient 2, Day 2",2
same,Migration 5 to 20,"[2]; Patient 2, Day 3",1
same,Migration <5,"[2]; Patient 2, Day 3",0
same,Migration >20,"[2]; Patient 2, Day 3",0
same,total >5,"[2]; Patient 2, Day 3",1
same,"total >5, final line, per cent",[2]; Patient 2,4.3%
same,"total >5, final line, number",[2]; Patient 2,3
same,Migration <5,"[2]; Patient 3 (well-differentiated adenocarcinoma of the pancreas, G2), Day 1",0
same,Migration 5 to 20,"[2]; Patient 3, Day 1",3
same,Migration >20,"[2]; Patient 3, Day 1",0
same,total >5,"[2]; Patient 3, Day 1",3
same,Migration 5 to 20,"[2]; Patient 3, Day 2",3
same,Migration <5,"[2]; Patient 3, Day 2",0
same,Migration >20,"[2]; Patient 3, Day 2",0
same,total >5,"[2]; Patient 3, Day 2",3
same,Migration 5 to 20,"[2]; Patient 3, Day 3",3
same,Migration <5,"[2]; Patient 3, Day 3",0
same,Migration >20,"[2]; Patient 3, Day 3",0
same,total >5,"[2]; Patient 3, Day 3",3
same,"total >5, final line, per cent",[2]; Patient 3,4.5%
same,"total >5, final line, number",[2]; Patient 3,3
same,total >5 [%],"[2]; Table 2, Patient 1",3.1%
same,"presence of micro-metastases at 3dpl, Migration 5 to 20","[2]; Table 2, Patient 1",0
same,Migration 5 to 20,"[2]; Table 2, Patient 1",2
same,Migration <5,"[2]; Table 2, Patient 1",0
same,Migration >20,"[2]; Table 2, Patient 1",0
same,total >5 [%],"[2]; Table 2, Patient 2",4.3% 4.4x10^-5
same,"presence of micro-metastases at 3dpl, Migration 5 to 20","[2]; Table 2, Patient 2",0
same,Migration 5 to 20,"[2]; Table 2, Patient 2",3
same,Migration <5,"[2]; Table 2, Patient 2",1
same,Migration >20,"[2]; Table 2, Patient 2",0
same,total >5 [%],"[2]; Table 2, Patient 3",4.5%
same,"presence of micro-metastases at 3dpl, Migration 5 to 20","[2]; Table 2, Patient 3",0
same,Migration 5 to 20,"[2]; Table 2, Patient 3",3
same,Migration <5,"[2]; Table 2, Patient 3",0
same,Migration >20,"[2]; Table 2, Patient 3",0
same,reduction of invasiveness and metastatic behaviour,[2]; compared to the DMSO treated control tissue of the same tumour specimen,> 95%
same,metastatic behavior of treated specimen,"[2]; p< 0.001, student t-test",significant decrease
